# “Also recorded” adds a separate entry of the source.
# Columns and labels:
# [1] = test system: human T-cells in A375 tumors; test: tumor microenvironment analysis by flow cytometry (therapeutic dosing study); type: in vivo, NOD/SCID mice; details: compared to vehicle
# Method: The tumor microenvironement of vehicle and Compound 1.041 treatments from the above experiment were further explored by dissecting, mincing and digested with collagenase D the tumors from relevant mice for analysis by flow cytometry. Briefly, this assay was performed as follows: Excised tumors were finely chopped with a blade and digested for 60 minutes at 37° C. in MSS 1X containing 2mg/ml of collagenase D and 1U/ml of DNAse I. Single cells were washed and resuspended in FACS buffer (PBS 1X with 10% FBS and 0.1% azide) containing the following monoclonal antibodies (hCD4 in FITC, PD-L1 in PE, CD3 in PercP-Cy5.5, CD45 in PE-Cy7, PD-1 in APC, CD8a in APC-Cy7, CD69 in Pacific Blue and LIVE/DEAD fixable Aqua stain). Isotype-matched controls were used as negative controls. Flow cytometry data were acquired with a FACSCanto II (BD Biosciences, San Jose, Calif.) cytometer and analyzed using FlowJO. […] The flow cytometer was gated on live cells singlets, hCD45^+ and hCD3^+ cells.
# hCD11C+hCD3- cells = test: PD-L1 Surface Expression Assay (FACS); type: cell-based, human; details: 16 hours, FIG. 2C
# Method: Briefly, this assay was performed as follows: Cells were seeded in 12 well plates. Test compounds or antibodies were added for 16 hours at different concentrations. Cells were washed and stained with anti-human PD-L1, anti-human CD11C and anti-human CD3 for 20 minutes at RT before performing FACS analysis. Matching isotype was used as a control.
# MDA-MB-231 cells = test: flow cytometry of PD-L1 surface staining with acid wash; type: cell-based, human; details: FIG. 3
# Method: To further investigate the possibility that Compound 1.041 reduces PD-L1 surface expression, flow cytometry analysis was formed on MDA-MB-231 cells after PD-L1 surface staining. An acid-wash protocol (cells were washed 3 times (5 minutes with shaking) with cold acid wash buffer (DMEM containing 0.2% BSA and adjusted to a 3.5 pH) followed by 3 washes (5 minutes with shaking) with ice cold PBS 1X) was used to confirm that differences in PD-L1 cell surface staining was not due to tested article interfering with detection antibody binding.
# [2] = test system: A375 human melanoma cells; test: therapeutic dosing, A375 melanoma/PBMC co-implantation model; type: in vivo, NOD/SCID mice; details: established A375 tumors co-injected with human PBMCs; Compound 1.041 30mg/kg bid, anti-hPD-L1 5 mg/kg i.p., from day 28
# Text: (§1) Co-crystallized human PD-1/PD-L1 provided structural information from which we developed a number of small molecule checkpoint inhibitors. Active compounds were first profiled by an ELISA assay measuring inhibition of the PD-1/PD-L1 interaction, followed by functional cell-based reporter and mixed lymphocyte reaction (MLR) assays. PD-1/PD-L1 inhibitory compounds thus identified were further selected for in vivo model testing.
# As briefly described in Example 1 the therapeutic activity of Compound 1.041 was tested using immunodeficient NOD/SCID mice (NOD.CB17-Prkdc^scid/NCrHsd) where A375 human melanoma cells were co-implanted along with human peripheral blood mononuclear cells (PBMCs). The mice were broken into 4 groups (n=7 each group): +PBMCs+Vehicle; +PBMCs+Compound 1.041; +PBMCs +Isotype antibody; and +PBMCs+anti-hPD-L1. Anti-hPD-L1 and isotype matched control antibody were injected i.p. at 5 mg/kg on day 28, 32, 36, 40, and 44. Compound 1.041 (30mg/kg) and vehicle dose (1% HPMC) p.i. twice daily (bid) starting on day 28.
# human PBMCs = test: T-Cell Exhaustion assay (SEB); type: cell-based; details: human PBMCs stimulated with 100ng/mL SEB for three days; FIG. 2A
# [3] = molecular target: T1, human PD-L1 / human PD-1 interaction (Homo sapiens, UniProt Q9NZQ7); test: ELISA of PD-1/PD-L1 interaction; type: binding; details: FIG. 1, stated collectively for the assays
# T1 construct: purchased R&D (PD-L1); ACRO Biosystems (PD-1, biotin)
# How it was run: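 Plates coated with 1 μg/mL human PD-L1 and blocked with BSA; serially diluted (1:5) compounds plus biotinylated human PD-1 (0.3 μg/mL) incubated 1 h at 37° C. Bound PD-1 detected with streptavidin-HRP/TMB, absorbance at 450 nm.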
# [4] = molecular target: recombinant PD-L1 proteins (dimerization) (Homo sapiens, UniProt Q9NZQ7); test: dimerization ELISA assay; type: binding; details: FIG. 1B
# Method: The activity of Compound 1.041 was assessed with an ELISA assay assessing the direct binding of recombinant PD-1 and PD-L1 proteins (FIG. 1A), a dimerization ELISA assay assessing the direct binding/dimerization of recombinant PD-L1 proteins (FIG. 1B), a cell based assay measuring the downstream signaling following the interaction of PD-1 and PD-L1 using a Luciferase reporter assay with cell lines overexpressing PD-1 and PD-L1 (FIG. 1C), and a mixed lymphocyte reaction assay measuring the functional outcome of upregulation of IFNg secretion, using allogenic primary human immune cells (FIG. 1D). Briefly, the mixed lymophocyte reaction assay was performed as follows: Dendritic cells and CD4+T Cells from unmatched donors were cultured together for 5 days in 96 well-flat bottom plates. Test compound was added as indicated at starting concentration of 1 μM with 1:4 dilutions with DMSO. Supernatants were harvested after 5 days of incubation and detection of human IFNg was performed by ELISA.
# [5] = test system: A375 human melanoma cells; test: prophylactic dosing, A375 melanoma/PBMC co-implantation model; type: in vivo, NOD/SCID mice; details: Compound 1.041 30mg/kg bid, anti-hPD-L1 5 mg/kg i.p.
# Text: as §1
# As briefly described in Example 1, the prophylactic activity of Compound 1.041 was tested using immunodeficientp NOD/SCID mice (NOD.CB17-Prkdc^scid/NCrHsd) where A375 human melanoma cells were co-implanted along with human peripheral blood mononuclear cells (PBMCs). The mice were broken into 8 groups (n =10 each group): +/−PBMCs+Vehicle; +/−PBMCs+Compound 1.041; +/−PBMCs+Isotype antibody; and +/−PBMCs+anti-hPD-L1. Anti-hPD-L1 and isotype matched control antibody were injected i.p. at 5 mg/kg on day 1, 5, 9, 13, and 17. Compound 1.041 (30mg/kg) and vehicle dose (1% HPMC) p.i. twice daily (bid) starting on day 1.
# T1 sequence (Q9NZQ7 19-239 limits assumed): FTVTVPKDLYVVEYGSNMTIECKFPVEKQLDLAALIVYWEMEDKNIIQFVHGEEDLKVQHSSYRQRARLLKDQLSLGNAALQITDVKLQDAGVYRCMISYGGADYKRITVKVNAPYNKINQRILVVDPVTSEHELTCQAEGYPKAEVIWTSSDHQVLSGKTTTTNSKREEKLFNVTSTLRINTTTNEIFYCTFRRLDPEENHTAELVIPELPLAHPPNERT
# recombinant PD-L1 proteins (dimerization), sequence (Q9NZQ7 19-239 limits assumed): as above
structure (smiles),measurement,setting,value
"C[C@@](CO)(NCc1cc(Cl)c(O[C@H]2CCc3c(-c4cccc(OCCCN5CC(O)C5)c4Cl)cccc32)cc1OCc1cncc(C#N)c1)C(=O)O [Compound 1.041, (S)-2-((5-chloro-4-(((S)-4(2-chloro-3-(3-(3-hydroxyazetidin-1-yl)propoxy)phenyl)-2,3-dihydro-1H-inden-1-yl)oxy)-2-((5-cyanopyridin-3-yl)methoxy)benzyl)amino)-3-hydroxy-2-methylpropanoic acid]",PD-1 expression (mean fluorescence intensity),"[1]; human CD8+ T-cells from treated mice, FIG. 10",reduction in PD-1 expression
same,percentage of hCD8+ T-Cells in contrast to hCD4+ T-Cells,"[1]; tumors, FIG. 9A-B",increases the percentage of hCH8^+ T-cells relative to hCH4^+ T-cells
same,ratio of hCD8+/hCD4+ T-cells,"[1]; tumors, FIG. 9C",significantly higher CD8^+ T-Cell/CD4^+ T-cell ratio
same,PD-L1 surface expression,hCD11C+hCD3- cells,significantly reduced PD-L1 surface expression
same,PD-L1 surface staining,MDA-MB-231 cells,reduced PD-L1 surface staining intensive; also recorded: PD-L1 expression decreases
same,relative tumor growth,[2],reduced tumor growth in vivo to a similar extent as the positive control anti-human PD-L1 antibody; also recorded: significant inhibitory effect
same,reversal of T cell exhaustion phenotype (IFN-g induction by SEB),human PBMCs,reversed T cell exhaustion phenotype; also recorded: reverses T-Cell exhaustion phenotype
same,blocking of PD-1/PD-L1 interaction,[3],highly potent and blocks PD-1/PD-L1 interaction
same,induction of hPD-L1 dimerization,[4],induction of hPD-L1 dimerization
same,tumor growth,"[5]; A375 cells + co-injected hPBMCs, from day 1",reduced tumor growth in vivo to a similar extent as the positive control anti-human PD-L1 antibody; also recorded: inhibited tumor growth
same,tumor growth,[5]; A375 cells alone (no hPBMCs),no effect on A375 tumor growth

# Source: patent US20210236476A1, “METHODS OF TREATING CANCER WITH SMALL MOLECULE PD-L1 INHIBITORS” (CHEMOCENTRYX, INC., priority 2018, published 2021)
